Results published in paper PMC6014988, “Precision therapeutic targeting of human cancer cell motility” (Nature Communications, 2018).

How the values were obtained:
[1] = Schiff-base formation with L-alanine, NMR; assay type: physicochemical; settings: 27°C (18 h) then 37°C, total 72 hours
Source text: Response to Reviewers' comments:
We wish to thank reviewers for their time and thoughtful review. Please find below point-by-point responses to reviewer queries. Associated changes in the manuscript are underlined.
Reviewer (your email indicates #3, the review letter indicates #4):
1. While Schiff-base formation may be reversible, the reverse reaction may not occur during the life of the protein. Considering KBU2046’s binding affinity is proposed to be driven by a single H-bonding interaction with the carbonyl in question, studies should be conducted to ensure the formation of a Schiff base is not occurring.
Response. To specifically examine Schiff-base formation, we incubated KBU2046 with L-alanine at 27°C (18 h) and then 37°C for a total 72 hours, and observed no change in 1H or 13C NMR spectra of drug from the original observed spectra for KBU2046 alone. This exposure […]
product in the presence of a biologically relevant, representative primary amine. These studies were conducted by co-author Karl Scheidt, Professor of chemistry at Northwestern University.
Attached to this letter is a detailed description of the experiment.
These new experimental findings are concordant with our other findings presented in the manuscript. […]

[2] = Systemic off-target effects, histologic examination after 35 days; assay type: in vivo
Description: Histologic examination of tissue: Organs of athymic male mice stained with hematoxylin and eosin, trichrome, or giemsa were microscopically examined by a mouse pathologist (L.L.) in a blinded fashion, and toxicity scored using an established semi-quantitative histological scoring system[38] (Supplementary Fig. 8). The following clinical chemistry parameters were measured in blood of CD1 male and female mice by Charles River Research Animal Diagnostic Services: cholesterol, triglycerides, alanine aminotransferase, aspartate aminotransferase, total bilirubin, glucose, phosphorus, total protein, calcium, blood urea nitrogen (BUN), creatinine, albumin, Na, K, Cl, white blood cells (with differential), red blood cells, hemoglobin, and platelets.
Supplementary Figure 7. KBU2046 treatment is not associated with systemic off-target effects. For histologic examination of tissue, cohorts of N=5 male 6-8 week old Balb/c athymic […]
KBU2046 as described in manuscript Figure 2a. […] Organs were examined for damage using a semi-quantitative histological scoring system, as described 4. […]

MKK4 [3] = target: T1, MKK4 (Homo sapiens, UniProt P45985, S257E/T261E); test: Fluorescence-based thermal shift assay, MKK4; assay type: binding
T1 construct: made in house; host or cells: KRX E. coli
Description: Fluorescent thermal shift, isothermal titration calorimetry, and biolayer interferometry assays[46] were all performed as described by us using MEK4EE (37-399, S257E, T261E) cloned into pMCSG7 and KRX Competent E. coli cells (Promega Inc.) and above denoted full-length HSP90B and CDC37 vectors and Rosetta BL-21 and BL-21 DE-3 competent E. coli cells, respectively. DARTS assays were conducted as described, using equimolar amounts of CDC37 and HSP90β, thermolysin digestion, and silver stain visualization (ProteoSilver Silver Stain Kit, Sigma-Aldrich).
(§1) Supplementary Figure 9. […] (a) Depiction of […]
(§2) established MKK4 pathway regulating human PCa cell metastasis. […]
(§3) to MKK4, as measured by fluorescence-based thermal shift assay. Values are the mean±SD (of N=2 replicates) increase in melting temperature (ΔTm) of purified recombinant MKK4 induced by the indicated concentrations of KBU2046 or genistein. […]
(§4) in an in vitro kinase assay. The indicated concentrations of KBU2046 were added to recombinant activated MKK4, and its ability to phosphorylate kinase dead p38α MAPK (K53A) was measured by Western blot for total (p38 MAPK) and phosphorylated (pp38 MAPK) forms of […]
HSP27 in cells. PC3-M cells were pre-treated for 24 hours with 50 µM KBU2046 or genistein, as indicated, then with TGFβ, and Western blot performed. […]

MKK4 [4] = target: MKK4 (Homo sapiens, UniProt P45985); test: MKK4 in vitro kinase assay; assay type: biochemical
Description: MEK4/MKK4/MAP2K4 in vitro kinase assay was performed as described by us[45].
as §1, §2, §3, §4
HSP27 in cells. PC3-M cells were pre-treated for 24 hours with 50 µM KBU2046 or genistein, as indicated, then with TGFβ, and Western blot performed. All findings are from a single experiment, with similar findings in identical separate experiments, repeated at least once. […]

T1 sequence (P45985 37-399 S257E/T261E): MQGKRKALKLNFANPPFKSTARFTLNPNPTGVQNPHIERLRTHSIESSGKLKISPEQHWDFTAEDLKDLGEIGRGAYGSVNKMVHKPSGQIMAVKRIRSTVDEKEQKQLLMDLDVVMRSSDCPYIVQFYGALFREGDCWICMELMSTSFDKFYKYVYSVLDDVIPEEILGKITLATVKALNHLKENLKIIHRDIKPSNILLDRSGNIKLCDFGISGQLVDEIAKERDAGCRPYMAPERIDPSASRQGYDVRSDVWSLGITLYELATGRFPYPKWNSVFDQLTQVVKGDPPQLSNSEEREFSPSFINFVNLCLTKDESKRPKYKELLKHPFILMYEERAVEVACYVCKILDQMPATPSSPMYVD
Sequence of MKK4 (Homo sapiens, UniProt P45985) (P45985 whole entry): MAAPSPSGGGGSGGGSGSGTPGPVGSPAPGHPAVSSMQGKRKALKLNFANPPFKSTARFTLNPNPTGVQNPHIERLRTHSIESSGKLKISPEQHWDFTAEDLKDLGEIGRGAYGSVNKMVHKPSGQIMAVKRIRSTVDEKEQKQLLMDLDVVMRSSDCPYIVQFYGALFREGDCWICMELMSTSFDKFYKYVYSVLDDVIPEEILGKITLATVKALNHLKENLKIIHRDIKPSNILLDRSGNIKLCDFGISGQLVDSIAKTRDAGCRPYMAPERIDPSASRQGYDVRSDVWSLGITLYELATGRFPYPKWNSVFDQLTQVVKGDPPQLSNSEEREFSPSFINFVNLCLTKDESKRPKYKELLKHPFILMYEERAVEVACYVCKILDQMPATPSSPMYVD

**Q.** For `O=C1c2ccccc2OCC1c1ccc(F)cc1` (racemic) [KBU2046, (±)-3(4-fluorophenyl)chroman-4-one], which “change in 1H or 13C NMR spectra (Schiff-base formation)” value [1] is on record?
**A.** no change

**Q.** And the “organ damage, histological scoring” value ([2]; athymic mice, KBU2046 in chow, 35 days)?
**A.** No organ damage was observed

**Q.** And the “toxicity after oral dosing” value ([2]; oral doses up to 150 mg/kg, up to 35 days)?
**A.** no observed toxicity

**Q.** What about the “binding to MKK4” value (MKK4 [3]) of the same compound?
**A.** did not bind to MKK4

**Q.** What about the “inhibition of MKK4 kinase activity” value (MKK4 [4]) of the same compound?
**A.** nor inhibit its kinase activity
